Experimental data taken from patent publication US10980781B2, “6-amino-2,4-dihydropyrano [2,3-c] pyrazoles and methods of use” (Purdue Research Foundation, priority 2017, dated 2021).

Target: USP7 (Homo sapiens (Human), UniProt Q93009)
Experiment: USP7 inhibition assay with Ub-Rho 110 substrate (fluorescence progress curves)
Format: biochemical
Conditions: for IC50: 11 compound concentrations, two-fold serial dilutions
Procedure: Each assay was measured in triplicate. […] All reactions contained a final concentration of 3% DMSO. […] The percent inhibition was calculated using Equation (1).
The assay design was identical to as described above. The percent inhibition was calculated using Equation 1 and fit to Equation 2 by use of the Enzyme Kinetics Module of Sigma Plot (v13:Systat Software Inc.), to determine the IC50 value.

[1] = 100 μM compound, 1 nM USP7, 200 nM Ub-Rho 110, 3% DMSO, triplicate

USP7, sequence (Q93009 whole entry): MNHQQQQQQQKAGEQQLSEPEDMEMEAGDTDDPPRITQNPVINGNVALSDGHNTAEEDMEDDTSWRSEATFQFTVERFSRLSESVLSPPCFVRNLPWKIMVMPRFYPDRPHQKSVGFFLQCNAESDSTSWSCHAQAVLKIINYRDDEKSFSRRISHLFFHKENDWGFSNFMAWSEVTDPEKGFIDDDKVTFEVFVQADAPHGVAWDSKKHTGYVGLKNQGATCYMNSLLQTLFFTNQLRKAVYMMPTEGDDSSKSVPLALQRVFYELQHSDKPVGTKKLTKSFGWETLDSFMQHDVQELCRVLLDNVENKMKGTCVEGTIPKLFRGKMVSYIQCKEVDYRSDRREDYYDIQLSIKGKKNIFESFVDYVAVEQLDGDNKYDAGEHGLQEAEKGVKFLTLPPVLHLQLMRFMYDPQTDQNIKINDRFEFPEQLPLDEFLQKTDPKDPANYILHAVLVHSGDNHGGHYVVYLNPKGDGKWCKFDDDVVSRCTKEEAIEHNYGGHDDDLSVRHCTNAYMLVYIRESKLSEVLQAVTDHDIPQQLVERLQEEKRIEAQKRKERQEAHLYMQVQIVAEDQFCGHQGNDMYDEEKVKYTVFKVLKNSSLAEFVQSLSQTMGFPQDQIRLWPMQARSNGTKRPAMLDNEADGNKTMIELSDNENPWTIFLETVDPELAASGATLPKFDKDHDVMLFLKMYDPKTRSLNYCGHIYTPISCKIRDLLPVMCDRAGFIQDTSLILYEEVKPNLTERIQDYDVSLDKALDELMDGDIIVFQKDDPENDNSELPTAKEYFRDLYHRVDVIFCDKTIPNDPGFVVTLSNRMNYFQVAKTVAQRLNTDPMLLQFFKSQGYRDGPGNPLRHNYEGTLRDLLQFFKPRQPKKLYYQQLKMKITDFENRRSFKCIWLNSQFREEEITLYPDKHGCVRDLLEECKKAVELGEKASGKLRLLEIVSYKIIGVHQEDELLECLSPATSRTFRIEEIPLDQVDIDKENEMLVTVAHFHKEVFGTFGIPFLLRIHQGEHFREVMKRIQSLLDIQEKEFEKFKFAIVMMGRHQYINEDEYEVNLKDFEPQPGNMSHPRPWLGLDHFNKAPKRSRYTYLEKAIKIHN

| SMILES | inhibition at 100 µM [1] [%] | IC50 (1 nM USP7, 200 nM Ub-Rho 110) [µM] | % inhibition @100 μM [1] [%] | inhibition at 150 µM (tested at 150 μM compound, 1 nM USP7, 200 nM Ub-Rho 110) [%] |
| --- | --- | --- | --- | --- |
| N#CC1=C(N)Oc2n[nH]c(-c3cccs3)c2C1c1ccc([N+](=O)[O-])cc1 (racemic) [Compound 6g, 6-Amino-4-(4-nitrophenyl)-3-(thiophen-2-yl)-2,4-dihydropyrano[2,3-c]pyrazole-5-carbonitrile] | 57 ± 2 | 33 ± 5 | – | – |
| C#CCOc1ccc(C2C(C#N)=C(N)Oc3n[nH]c(-c4cccs4)c32)cc1Br (racemic) [Compound 6n, 6-Amino-4-(3-bromo-4-(prop-2-yn-1-yloxy)phenyl)-3-(thiophen-2-yl)-2,4-dihydropyrano[2,3-c]pyrazole-5-carbonitrile] | 84 ± 2 | 4.5 ± 0.6 | – | – |
| N#CC1=C(N)Oc2n[nH]c(-c3cccs3)c2C1c1ccc2c(c1)CCO2 (racemic) [Compound 6o, 6-Amino-4-(2,3-dihydrobenzofuran-5-yl)-3-(thiophen-2-yl)-2,4-dihydropyrano [2,3-c]pyrazole-5-carbonitrile] | 45 ± 9 | 13 ± 3 | – | – |
| N#CC1=C(N)Oc2n[nH]c(-c3cccs3)c2C1c1ccc(O)c(C(F)(F)F)c1 (racemic) [Compound 6q, 6-Amino-4-(4-hydroxy-3-(trifluoromethyl)phenyl)-3-(thiophen-2-yl)-2,4-dihydropyrano[2,3-c]pyrazole-5-carbonitrile] | 92 ± 2 | 11 ± 0.7 | – | – |
| COc1cc(C)c(C2C(C#N)=C(N)Oc3n[nH]c(-c4cccs4)c32)cc1C(C)C (racemic) [Compound 6r, 6-Amino-4-(5-isopropyl-4-methoxy-2-methylphenyl)-3-(thiophen-2-yl)-2,4-dihydropyrano[2,3-c]pyrazole-5-carbonitrile] | 95 ± 4 | 1.4 ± 0.2 | – | – |
| COc1ccc(C2C(C#N)=C(N)Oc3n[nH]c(-c4cccs4)c32)cc1F (racemic) [Compound 6s, 6-Amino-4-(3-fluoro-4-methoxyphenyl)-3-(thiophen-2-yl)-2,4-dihydropyrano [2,3-c]pyrazole-5-carbonitrile] | 32 ± 13 | 7 ± 2 | – | – |
| COc1ccc(C2C(C#N)=C(N)Oc3n[nH]c(-c4cccs4)c32)cc1Cl (racemic) [Compound 6t, 6-Amino-4-(3-chloro-4-methoxyphenyl)-3-(thiophen-2-yl)-2,4-dihydropyrano [2,3-c]pyrazole-5-carbonitrile] | 55 ± 3 | 7 ± 2 | – | – |
| COc1ccc(C2C(C#N)=C(N)Oc3n[nH]c(-c4cccs4)c32)cc1I (racemic) [Compound 6u, 6-Amino-4-(3-iodo-4-methoxyphenyl)-3-(thiophen-2-yl)-2,4-dihydropyrano [2,3-c]pyrazole-5-carbonitrile] | 85 ± 1 | 1.8 ± 0.1 | – | – |
| N#CC1=C(N)Oc2n[nH]c(-c3cccs3)c2C1c1ccc(O)c(C(F)(F)F)c1 (racemic) [Compound 6v, 6-Amino-4-(4-hydroxy-3-(trifluoromethyl)phenyl)-3-(thiophen-2-yl)-2,4-dihydropyrano[2,3-c]pyrazole-5-carbonitrile] | – | 0.75 ± 0.06 | 93 ± 4 | – |
| COc1ccc(C2C(C#N)=C(N)Oc3n[nH]c(-c4ccsc4)c32)cc1Br (racemic) [Compound 7a, 6-Amino-4-(3-bromo-4-methoxyphenyl)-3-(thiophen-3-yl)-2,4-dihydropyrano [2,3-c]pyrazole-5-carbonitrile] | 72 ± 4 | 8.1 ± 1 | – | – |
| COc1ccc(C2C(C#N)=C(N)Oc3n[nH]c(-c4ccsc4)c32)cc1I (racemic) [Compound 7b, 6-Amino-4-(3-iodo-4-methoxyphenyl)-3-(thiophen-3-yl)-2,4-dihydropyrano [2,3-c]pyrazole-5-carbonitrile] | 71 ± 3 | 5.6 ± 0.7 | – | – |
| COc1ccc(C2C(C#N)=C(N)Oc3n[nH]c(-c4ccccn4)c32)cc1Br (racemic) [Compound 7c, 6-Amino-4-(3-bromo-4-methoxyphenyl)-3-(pyridin-2-yl)-2,4-dihydropyrano [2,3-c]pyrazole-5-carbonitrile] | 85 ± 2 | 7.9 ± 0.4 | – | – |
| COc1ccc(C2C(C#N)=C(N)Oc3n[nH]c(-c4ccccn4)c32)cc1I (racemic) [Compound 7d, 6-Amino-4-(3-iodo-4-methoxyphenyl)-3-(pyridin-2-yl)-2,4-dihydropyrano [2,3-c]pyrazole-5-carbonitrile] | – | 4.4 | – | 89 ± 2 |
| COc1ccc(C2C(C#N)=C(N)Oc3n[nH]c(-c4cccnc4)c32)cc1Br (racemic) [Compound 7e, 6-Amino-4-(3-bromo-4-methoxyphenyl)-3-(pyridin-3-yl)-2,4-dihydropyrano [2,3-c]pyrazole-5-carbonitrile] | 82 ± 9 | 24 ± 5 | – | – |
| COc1ccc(C2C(C#N)=C(N)Oc3n[nH]c(-c4cccnc4)c32)cc1I (racemic) [Compound 7f, 6-Amino-4-(3-iodo-4-methoxyphenyl)-3-(pyridin-3-yl)-2,4-dihydropyrano [2,3-c]pyrazole-5-carbonitrile] | 83 ± 3 | 7.7 ± 0.9 | – | – |
| COc1ccc(C2C(C#N)=C(N)Oc3n[nH]c(-c4ccc(Cl)cc4)c32)cc1Br (racemic) [Compound 7h, 6-Amino-4-(3-bromo-4-methoxyphenyl)-3-(4-chlorophenyl)-2,4-dihydropyrano [2,3-c]pyrazole-5-carbonitrile] | 66 ± 3 | 7.5 ± 0.9 | – | – |
| COc1ccc(C2C(C#N)=C(N)Oc3n[nH]c(-c4ccn(C)c4)c32)cc1Br (racemic) [Compound 7l, 6-Amino-4-(3-bromo-4-methoxyphenyl)-3-(1-methyl-1H-pyrrol-3-yl)-2,4-dihydropyrano[2,3-c]pyrazole-5-carbonitrile] | 88 ± 0.09 | 1.91 ± 0.8 | – | – |
| COc1ccc(C2C(C#N)=C(N)Oc3n[nH]c(-c4ccn(C)c4)c32)cc1I (racemic) [Compound 7m, 6-Amino-4-(3-iodo-4-methoxyphenyl)-3-(1-methyl-1H-pyrrol-3-yl)-2,4-dihydropyrano[2,3-c]pyrazole-5-carbonitrile] | 89 ± 1 | 1.31 ± 0.06 | – | – |
| COc1ccc(C2C(C#N)=C(N)Oc3n[nH]c(-c4cccs4)c32)cc1Br (centres unmarked) [Compound 6a, 6-Amino-4-(3-bromo-4-methoxyphenyl)-3-(thiophen-2-yl)-2,4-dihydropyrano [2,3-c]pyrazole-5-carbonitrile] | 72 ± 3 | – | – | – |
| COc1ccc(C2C(C#N)=C(N)Oc3n[nH]c(-c4cccs4)c32)cc1 (centres unmarked) [Compound 6b, 6-Amino-4-(4-methoxyphenyl)-3-(thiophen-2-yl)-2,4-dihydropyrano [2,3-c]pyrazole-5-carbonitrile] | 10 ± 7 | – | – | – |
| N#CC1=C(N)Oc2n[nH]c(-c3cccs3)c2C1c1cccc(Br)c1 (centres unmarked) [Compound 6c, 6-Amino-4-(3-bromophenyl)-3-(thiophen-2-yl)-2,4-dihydropyrano[2,3-c]pyrazole-5-carbonitrile] | 0 | – | – | – |
| N#CC1=C(N)Oc2n[nH]c(-c3cccs3)c2C1c1ccc(O)cc1 (centres unmarked) [Compound 6d, 6-Amino-4-(4-hydroxyphenyl)-3-(thiophen-2-yl)-2,4-dihydropyrano [2,3-c]pyrazole-5-carbonitrile] | 0 | – | – | – |
| Cc1ccc(C2C(C#N)=C(N)Oc3n[nH]c(-c4cccs4)c32)cc1 (centres unmarked) [Compound 6e, 6-Amino-3-(thiophen-2-yl)-4-(p-tolyl)-2,4-dihydropyrano [2,3-c]pyrazole-5-carbonitrile] | 0 | – | – | – |
